Data reported in PubChem BioAssay AID248 (DTP/NCI, 2004).
“And” between values parts separate entries of the source, which are not always exact repeats. Equal values may be shown once. Toxic doses and inconclusive results are not listed. Rule as the data show it: active = T/C of 150% or more; inactive = T/C below 125%.

System: L1210 leukemia ip in BDF1 mice, survival T/C
Assay: NCI In Vivo Anticancer Drug Screen. Data for tumor model L1210 Leukemia (intraperitoneal) in B6D2F1 (BDF1) mice
Conditions: endpoint: mean survival time, higher = longer survival
How it was run: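 Antitumor effect is assessed in tumor-bearing animals. Survival in the compound arm is compared with a vehicle-dosed control arm and expressed as their quotient.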

[1] = dose: 100.0 mg/kg/injection, schedule: Q04DX003 (ip), vehicle: saline with Tween-80
[2] = dose: 200.0 mg/kg/injection, schedule: Q04DX003 (ip), vehicle: saline with Tween-80
[3] = dose: 100.0 mg/kg/injection, schedule: Q04DX003 (ip), vehicle: Klucel (hydroxypropylcellulose) (HPC)
[4] = dose: 200.0 mg/kg/injection, schedule: Q04DX003 (ip), vehicle: Klucel (hydroxypropylcellulose) (HPC)
[5] = dose: 6.25 mg/kg/injection, schedule: Q01DX009 (ip), vehicle: saline
[6] = dose: 6.25 mg/kg/injection, schedule: Q04DX003 (ip), vehicle: saline
[7] = dose: 12.5 mg/kg/injection, schedule: Q01DX009 (ip), vehicle: saline
[8] = dose: 12.5 mg/kg/injection, schedule: Q04DX003 (ip), vehicle: saline
[9] = dose: 25.0 mg/kg/injection, schedule: Q01DX009 (ip), vehicle: saline
[10] = dose: 25.0 mg/kg/injection, schedule: Q04DX003 (ip), vehicle: saline

Measured: T/C

CC(=O)OC1c2ccccc2-c2ccc([N+](=O)[O-])cc21 (configuration not stated)
inactive: [1] 93 % of control and 100 % of control | [2] 100 % of control and 102 % of control | dose: 400.0 mg/kg/injection, schedule: Q04DX003 (ip), vehicle: saline with Tween-80 96 % of control and 98 % of control

CCOC(=O)C(O)(C(=O)OCC)C1C(=O)c2ccccc2C1=O
inactive: dose: 50.0 mg/kg/injection, schedule: Q04DX003 (ip), vehicle: Klucel (hydroxypropylcellulose) (HPC) 91 % of control | [3] 98 % of control | [4] 99 % of control

CC(C)(C)NC(=O)CCC1CC(=O)NC12CCCCC2 (configuration not stated)
inactive: dose: 75.0 mg/kg/injection, schedule: Q01DX009 (ip), vehicle: Klucel (hydroxypropylcellulose) (HPC) 90 % of control | dose: 150.0 mg/kg/injection, schedule: Q01DX009 (ip), vehicle: Klucel (hydroxypropylcellulose) (HPC) 91 % of control | dose: 300.0 mg/kg/injection, schedule: Q01DX009 (ip), vehicle: Klucel (hydroxypropylcellulose) (HPC) 96 % of control

CN1C2CCCC1CC(O)(c1ccccc1)C2 (configuration not stated)
inactive: dose: 12.5 mg/kg/injection, schedule: Q01DX001 (ip), vehicle: Klucel (hydroxypropylcellulose) (HPC) 96 % of control | dose: 25.0 mg/kg/injection, schedule: Q01DX001 (ip), vehicle: Klucel (hydroxypropylcellulose) (HPC) 99 % of control | dose: 50.0 mg/kg/injection, schedule: Q01DX001 (ip), vehicle: Klucel (hydroxypropylcellulose) (HPC) 102 % of control

CC(=O)N(C)C1=C(Sc2ccc([N+](=O)[O-])cc2)C(=O)c2ccccc2C1=O
inactive: dose: 50.0 mg/kg/injection, schedule: Q04DX003 (ip), vehicle: other 92 % of control | dose: 100.0 mg/kg/injection, schedule: Q01DX001 (ip), vehicle: other 97 % of control | dose: 100.0 mg/kg/injection, schedule: Q04DX003 (ip), vehicle: other 97 % of control | dose: 200.0 mg/kg/injection, schedule: Q01DX001 (ip), vehicle: other 96 % of control | dose: 200.0 mg/kg/injection, schedule: Q04DX003 (ip), vehicle: other 86 % of control | dose: 400.0 mg/kg/injection, schedule: Q01DX001 (ip), vehicle: other 92 % of control

CCCN(CCC)CCC#N
inactive: dose: 59.0 mg/kg/injection, schedule: Q01DX009 (ip), vehicle: saline with Tween-80 100 % of control | [1] 93 % of control | dose: 118.0 mg/kg/injection, schedule: Q01DX009 (ip), vehicle: saline with Tween-80 105 % of control | [2] 93 % of control

CCSCCC1(CCC(C)C)C(=O)NC(=Nc2ccccc2)NC1=O (configuration not stated)
inactive: dose: 100.0 mg/kg/injection, schedule: Q01DX001 (ip), vehicle: carboxymethylcellulose (CMC) 90 % of control | dose: 200.0 mg/kg/injection, schedule: Q01DX001 (ip), vehicle: carboxymethylcellulose (CMC) 88 % of control | dose: 400.0 mg/kg/injection, schedule: Q01DX001 (ip), vehicle: carboxymethylcellulose (CMC) 96 % of control

CC1=NNC(C)(C)C1
inactive: dose: 100.0 mg/kg/injection, schedule: Q04DX003 (ip), vehicle: saline 91 % of control | dose: 200.0 mg/kg/injection, schedule: Q04DX003 (ip), vehicle: saline 93 % of control | dose: 400.0 mg/kg/injection, schedule: Q04DX003 (ip), vehicle: saline 98 % of control

C[N+]1(C)CC2C3C=CC(C3)C2C1 (configuration not stated)
inactive: [3] 102 % of control | [4] 96 % of control

CCc1ccccc1NC(=O)Sc1cccc(C)c1
inactive: dose: 25.0 mg/kg/injection, schedule: Q01DX009 (ip), vehicle: Klucel (hydroxypropylcellulose) (HPC) 96 % of control | dose: 50.0 mg/kg/injection, schedule: Q01DX009 (ip), vehicle: Klucel (hydroxypropylcellulose) (HPC) 96 % of control | dose: 100.0 mg/kg/injection, schedule: Q01DX009 (ip), vehicle: Klucel (hydroxypropylcellulose) (HPC) 98 % of control and 103 % of control | [3] 100 % of control | [4] 105 % of control

OC(CCl)CBr (configuration not stated)
inactive: [5] 96 % of control | [6] 97 % of control | [7] 96 % of control | [8] 92 % of control | [9] 94 % of control | [10] 93 % of control

OCCNCCN1CCN(CCCN2c3ccccc3Sc3ccc(C(F)(F)F)cc32)CC1
inactive: [5] 111 % of control | [6] 104 % of control | [7] 105 % of control | [8] 101 % of control | [9] 88 % of control | [10] 95 % of control
